According to PMC4515243, “Phase 1 pharmacokinetic study of the oral pan-AKT inhibitor MK-2206 in Japanese patients with advanced solid tumors” (Cancer Chemotherapy and Pharmacology, 2015):

System: Japanese patients with advanced solid tumors
Experiment: phase 1 safety and tolerability (DLT, adverse events) in Japanese patients;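 note: toxicities graded by NCI CTCAE version 3.0, treatment given until disease progression or unacceptable toxicity, three to nine patients enrolled per dose level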
[1] = 60 mg QOD, grade 3 mucosal inflammation

Description: Treatment was continued until disease progression or the occurrence of an unacceptable toxicity.
A minimum of three and up to nine patients were enrolled at each dose level based on the toxicity probability intervals [9].
Adverse events were graded using the National Cancer Institute Common Terminology Criteria for Adverse Events, version 3.0.

NC1(c2ccc(-c3nc4ccn5c(=O)[nH]nc5c4cc3-c3ccccc3)cc2)CCC1 [MK-2206]
ALT increased, drug-related adverse event, patients (45 mg QOD (n = 3), All grades): 0
Blood creatinine increased, drug-related adverse event, patients (45 mg QOD (n = 3), All grades): 1
Decreased appetite, drug-related adverse event, patients (45 mg QOD (n = 3), All grades): 1
Diarrhea, drug-related adverse event, patients (45 mg QOD (n = 3), All grades): 1
Dry skin, drug-related adverse event, patients (45 mg QOD (n = 3), All grades): 2
Eosinophil count increased, drug-related adverse event, patients (45 mg QOD (n = 3), All grades): 0
Eosinophilia, drug-related adverse event, patients (45 mg QOD (n = 3), All grades): 2
Erythema multiforme, drug-related adverse event, patients (45 mg QOD (n = 3), All grades): 0
Fatigue, drug-related adverse event, patients (45 mg QOD (n = 3), All grades): 1
HbA1C increased, drug-related adverse event, patients (45 mg QOD (n = 3), All grades): 0
Hyperglycemia, drug-related adverse event, patients (45 mg QOD (n = 3), All grades): 1
Hypernatremia, drug-related adverse event, patients (45 mg QOD (n = 3), All grades): 0
Hypoalbuminemia, drug-related adverse event, patients (45 mg QOD (n = 3), All grades): 0
Hypokalemia, drug-related adverse event, patients (45 mg QOD (n = 3), All grades): 0
Insulin c-peptide increased, drug-related adverse event, patients (45 mg QOD (n = 3), All grades): 2
Leukopenia, drug-related adverse event, patients (45 mg QOD (n = 3), All grades): 2
Localized edema, drug-related adverse event, patients (45 mg QOD (n = 3), All grades): 0
Lymphopenia, drug-related adverse event, patients (45 mg QOD (n = 3), All grades): 2
Nausea, drug-related adverse event, patients (45 mg QOD (n = 3), All grades): 0
Neutropenia, drug-related adverse event, patients (45 mg QOD (n = 3), All grades): 2
Palmar-plantar erythrodysaesthesia syndrome, drug-related adverse event, patients (45 mg QOD (n = 3), All grades): 1
Pruritus, drug-related adverse event, patients (45 mg QOD (n = 3), All grades): 1
Pyrexia, drug-related adverse event, patients (45 mg QOD (n = 3), All grades): 1
Rash, drug-related adverse event, patients (45 mg QOD (n = 3), All grades): 3
Stomatitis, drug-related adverse event, patients (45 mg QOD (n = 3), All grades): 2
Vomiting, drug-related adverse event, patients (45 mg QOD (n = 3), All grades): 0
ALT increased, drug-related adverse event, patients (45 mg QOD (n = 3), Grades 3–5): 0
Blood creatinine increased, drug-related adverse event, patients (45 mg QOD (n = 3), Grades 3–5): 0
Decreased appetite, drug-related adverse event, patients (45 mg QOD (n = 3), Grades 3–5): 0
Diarrhea, drug-related adverse event, patients (45 mg QOD (n = 3), Grades 3–5): 1
Dry skin, drug-related adverse event, patients (45 mg QOD (n = 3), Grades 3–5): 0
Eosinophil count increased, drug-related adverse event, patients (45 mg QOD (n = 3), Grades 3–5): 0
Eosinophilia, drug-related adverse event, patients (45 mg QOD (n = 3), Grades 3–5): 0
Erythema multiforme, drug-related adverse event, patients (45 mg QOD (n = 3), Grades 3–5): 0
Fatigue, drug-related adverse event, patients (45 mg QOD (n = 3), Grades 3–5): 0
HbA1C increased, drug-related adverse event, patients (45 mg QOD (n = 3), Grades 3–5): 0
Hyperglycemia, drug-related adverse event, patients (45 mg QOD (n = 3), Grades 3–5): 0
Hypernatremia, drug-related adverse event, patients (45 mg QOD (n = 3), Grades 3–5): 0
Hypoalbuminemia, drug-related adverse event, patients (45 mg QOD (n = 3), Grades 3–5): 0
Hypokalemia, drug-related adverse event, patients (45 mg QOD (n = 3), Grades 3–5): 0
Insulin c-peptide increased, drug-related adverse event, patients (45 mg QOD (n = 3), Grades 3–5): 0
Leukopenia, drug-related adverse event, patients (45 mg QOD (n = 3), Grades 3–5): 0
Localized edema, drug-related adverse event, patients (45 mg QOD (n = 3), Grades 3–5): 0
Lymphopenia, drug-related adverse event, patients (45 mg QOD (n = 3), Grades 3–5): 2
Nausea, drug-related adverse event, patients (45 mg QOD (n = 3), Grades 3–5): 0
Neutropenia, drug-related adverse event, patients (45 mg QOD (n = 3), Grades 3–5): 1
Palmar-plantar erythrodysaesthesia syndrome, drug-related adverse event, patients (45 mg QOD (n = 3), Grades 3–5): 0
Pruritus, drug-related adverse event, patients (45 mg QOD (n = 3), Grades 3–5): 0
Pyrexia, drug-related adverse event, patients (45 mg QOD (n = 3), Grades 3–5): 0
Rash, drug-related adverse event, patients (45 mg QOD (n = 3), Grades 3–5): 0
Stomatitis, drug-related adverse event, patients (45 mg QOD (n = 3), Grades 3–5): 0
Vomiting, drug-related adverse event, patients (45 mg QOD (n = 3), Grades 3–5): 0
DLTs during Cycle 1 (45 mg QOD, three patients): No DLTs
ALT increased, drug-related adverse event, patients (60 mg QOD (n = 9), All grades): 1
Blood creatinine increased, drug-related adverse event, patients (60 mg QOD (n = 9), All grades): 1
Decreased appetite, drug-related adverse event, patients (60 mg QOD (n = 9), All grades): 1
Diarrhea, drug-related adverse event, patients (60 mg QOD (n = 9), All grades): 5
Dry skin, drug-related adverse event, patients (60 mg QOD (n = 9), All grades): 0
Eosinophil count increased, drug-related adverse event, patients (60 mg QOD (n = 9), All grades): 0
Eosinophilia, drug-related adverse event, patients (60 mg QOD (n = 9), All grades): 6
Erythema multiforme, drug-related adverse event, patients (60 mg QOD (n = 9), All grades): 0
Fatigue, drug-related adverse event, patients (60 mg QOD (n = 9), All grades): 4
HbA1C increased, drug-related adverse event, patients (60 mg QOD (n = 9), All grades): 2
Hyperglycemia, drug-related adverse event, patients (60 mg QOD (n = 9), All grades): 3
Hypernatremia, drug-related adverse event, patients (60 mg QOD (n = 9), All grades): 1
Hypoalbuminemia, drug-related adverse event, patients (60 mg QOD (n = 9), All grades): 2
Hypokalemia, drug-related adverse event, patients (60 mg QOD (n = 9), All grades): 1
Insulin c-peptide increased, drug-related adverse event, patients (60 mg QOD (n = 9), All grades): 7
Leukopenia, drug-related adverse event, patients (60 mg QOD (n = 9), All grades): 2
Localized edema, drug-related adverse event, patients (60 mg QOD (n = 9), All grades): 0
Lymphopenia, drug-related adverse event, patients (60 mg QOD (n = 9), All grades): 5
Nausea, drug-related adverse event, patients (60 mg QOD (n = 9), All grades): 1
Neutropenia, drug-related adverse event, patients (60 mg QOD (n = 9), All grades): 2
Palmar-plantar erythrodysaesthesia syndrome, drug-related adverse event, patients (60 mg QOD (n = 9), All grades): 1
Pruritus, drug-related adverse event, patients (60 mg QOD (n = 9), All grades): 4
Pyrexia, drug-related adverse event, patients (60 mg QOD (n = 9), All grades): 7
Rash, drug-related adverse event, patients (60 mg QOD (n = 9), All grades): 9
Stomatitis, drug-related adverse event, patients (60 mg QOD (n = 9), All grades): 6
Vomiting, drug-related adverse event, patients (60 mg QOD (n = 9), All grades): 0
ALT increased, drug-related adverse event, patients (60 mg QOD (n = 9), Grades 3–5): 0
Blood creatinine increased, drug-related adverse event, patients (60 mg QOD (n = 9), Grades 3–5): 0
Decreased appetite, drug-related adverse event, patients (60 mg QOD (n = 9), Grades 3–5): 0
Diarrhea, drug-related adverse event, patients (60 mg QOD (n = 9), Grades 3–5): 0
Dry skin, drug-related adverse event, patients (60 mg QOD (n = 9), Grades 3–5): 0
Eosinophil count increased, drug-related adverse event, patients (60 mg QOD (n = 9), Grades 3–5): 0
Eosinophilia, drug-related adverse event, patients (60 mg QOD (n = 9), Grades 3–5): 0
Erythema multiforme, drug-related adverse event, patients (60 mg QOD (n = 9), Grades 3–5): 0
Fatigue, drug-related adverse event, patients (60 mg QOD (n = 9), Grades 3–5): 0
HbA1C increased, drug-related adverse event, patients (60 mg QOD (n = 9), Grades 3–5): 0
Hyperglycemia, drug-related adverse event, patients (60 mg QOD (n = 9), Grades 3–5): 0
Hypernatremia, drug-related adverse event, patients (60 mg QOD (n = 9), Grades 3–5): 0
Hypoalbuminemia, drug-related adverse event, patients (60 mg QOD (n = 9), Grades 3–5): 0
Hypokalemia, drug-related adverse event, patients (60 mg QOD (n = 9), Grades 3–5): 0
Insulin c-peptide increased, drug-related adverse event, patients (60 mg QOD (n = 9), Grades 3–5): 0
Leukopenia, drug-related adverse event, patients (60 mg QOD (n = 9), Grades 3–5): 0
Localized edema, drug-related adverse event, patients (60 mg QOD (n = 9), Grades 3–5): 0
Lymphopenia, drug-related adverse event, patients (60 mg QOD (n = 9), Grades 3–5): 2
Nausea, drug-related adverse event, patients (60 mg QOD (n = 9), Grades 3–5): 0
Neutropenia, drug-related adverse event, patients (60 mg QOD (n = 9), Grades 3–5): 0
Palmar-plantar erythrodysaesthesia syndrome, drug-related adverse event, patients (60 mg QOD (n = 9), Grades 3–5): 0
Pruritus, drug-related adverse event, patients (60 mg QOD (n = 9), Grades 3–5): 0
Pyrexia, drug-related adverse event, patients (60 mg QOD (n = 9), Grades 3–5): 0
Rash, drug-related adverse event, patients (60 mg QOD (n = 9), Grades 3–5): 1
Stomatitis, drug-related adverse event, patients (60 mg QOD (n = 9), Grades 3–5): 0
Vomiting, drug-related adverse event, patients (60 mg QOD (n = 9), Grades 3–5): 0
patients with DLT during Cycle 1 [1]: One of the nine
time until the onset of the DLT after the start of treatment [1]: 28 days
DLTs during Cycle 1 (135 mg QW): no DLTs
ALT increased, drug-related adverse event, patients (135 mg QW (n = 3), All grades): 0
Blood creatinine increased, drug-related adverse event, patients (135 mg QW (n = 3), All grades): 0
Decreased appetite, drug-related adverse event, patients (135 mg QW (n = 3), All grades): 1
Diarrhea, drug-related adverse event, patients (135 mg QW (n = 3), All grades): 1
Dry skin, drug-related adverse event, patients (135 mg QW (n = 3), All grades): 1
Eosinophil count increased, drug-related adverse event, patients (135 mg QW (n = 3), All grades): 2
Eosinophilia, drug-related adverse event, patients (135 mg QW (n = 3), All grades): 1
Erythema multiforme, drug-related adverse event, patients (135 mg QW (n = 3), All grades): 0
Fatigue, drug-related adverse event, patients (135 mg QW (n = 3), All grades): 1
HbA1C increased, drug-related adverse event, patients (135 mg QW (n = 3), All grades): 1
Hyperglycemia, drug-related adverse event, patients (135 mg QW (n = 3), All grades): 2
Hypernatremia, drug-related adverse event, patients (135 mg QW (n = 3), All grades): 0
Hypoalbuminemia, drug-related adverse event, patients (135 mg QW (n = 3), All grades): 0
Hypokalemia, drug-related adverse event, patients (135 mg QW (n = 3), All grades): 1
Insulin c-peptide increased, drug-related adverse event, patients (135 mg QW (n = 3), All grades): 2
Leukopenia, drug-related adverse event, patients (135 mg QW (n = 3), All grades): 0
Localized edema, drug-related adverse event, patients (135 mg QW (n = 3), All grades): 0
Lymphopenia, drug-related adverse event, patients (135 mg QW (n = 3), All grades): 0
Nausea, drug-related adverse event, patients (135 mg QW (n = 3), All grades): 1
Neutropenia, drug-related adverse event, patients (135 mg QW (n = 3), All grades): 1
Palmar-plantar erythrodysaesthesia syndrome, drug-related adverse event, patients (135 mg QW (n = 3), All grades): 0
Pruritus, drug-related adverse event, patients (135 mg QW (n = 3), All grades): 0
Pyrexia, drug-related adverse event, patients (135 mg QW (n = 3), All grades): 0
Rash, drug-related adverse event, patients (135 mg QW (n = 3), All grades): 2
Stomatitis, drug-related adverse event, patients (135 mg QW (n = 3), All grades): 0
Vomiting, drug-related adverse event, patients (135 mg QW (n = 3), All grades): 1
ALT increased, drug-related adverse event, patients (135 mg QW (n = 3), Grades 3–5): 0
Blood creatinine increased, drug-related adverse event, patients (135 mg QW (n = 3), Grades 3–5): 0
Decreased appetite, drug-related adverse event, patients (135 mg QW (n = 3), Grades 3–5): 0
Diarrhea, drug-related adverse event, patients (135 mg QW (n = 3), Grades 3–5): 0
Dry skin, drug-related adverse event, patients (135 mg QW (n = 3), Grades 3–5): 0
Eosinophil count increased, drug-related adverse event, patients (135 mg QW (n = 3), Grades 3–5): 0
